Source: patent US11331290B2, “Niclosamide for the treatment of cancer metastasis” (Max-Delbrück-Centrum für Molekulare Medizin in der …, priority 2011, dated 2022)

Legend:
Type in all cases: cell-based, human
DLD-1 cells = experiment: Boyden chamber transwell migration assay; settings: 1 μM, 24 h
Method: (§1) HCT116, SW620, LS174T, SW480 and DLD-1 cells were used in cell migration and invasion analysis performed with Boyden chamber assay. 400 μL containing 2.5×10^5 cells were seeded into each transwell chamber with filter membranes of 12.0 μm pore size (Millipore, Schwalbach, Germany). For invasion filter membranes were coated with 50 μL Matrigel (diluted 1:3 in RPMI-1640; BD Biosciences) 10 minutes before cells were seeded. Fresh medium (600 μL) were added to the bottom chamber and cells were allowed to attach to the insets for 15 hours. Both chambers were treated with 1 μM niclosamide or the respective amount of DMSO and incubated at 37° C. and 5% CO2 in a humidified incubator for 24 hours. Afterwards insets were removed and cells that had migrated through the membrane to the lower chamber were trypsinized and counted in a Neubauer chamber (LO-Laboroptik, Bad Homburg, Germany). Each well was counted ten times. Each migration or invasion experiment was performed in duplicate. The average number of migrated or invaded cells was determined for at least three independent experiments.
(§2) (A) S100A4 expression under niclosamide treatment. Cells were treated with 1 μM niclosamide for 24 hours. S100A4 expression was analyzed with qRT-PCR and immunoblot. (B) Cell migration under niclosamide treatment. Migration rates of cells treated with 1 μM niclosamide for 24 hours were determined in a Boyden chamber assay values were normalized to solvent-treated SW620 cells. (C) Cell invasion under niclosamide treatment. Cells were seeded onto Matrigel covered transwells and treated with 1 μM niclosamide for 24 hours. Invaded cells in the lower chamber were counted and normalized to solvent-treated SW620 cells. Differences in solvent vs. niclosamide-treated cells were analyzed by Student's t test. Data represent mean±SE of at least two independent experiments each performed in triplicate. (D) Directed migration under niclosamide treatment. Wounds of 300 μM width were set in a 60% confluent monolayer of cells on day 1. Cells were treated daily with 1 μM niclosamide for 4 days. Microphotographs of day 4 are presented here with black lines indicating margins of the wound on day 1; scale bar represents 200 μM. Directed migration data shown are representatives of three independent experiments. (E) Adhesive cell proliferation under niclosamide treatment. Cells were treated daily with 1 μM niclosamide. The amount of viable cells per well was determined by MTT assay. (F) Anchorage-independent cell growth under niclosamide treatment. Cells were plated as single cells into 0.33% (w/v) agarose and treatment (solvent or 1 μM niclosamide) containing medium. After 7 days colonies were visualized by light microscopy at 10× (overview) and 40× (single colony) magnification. (G) Quantification of colonies formed. Number of colonies (of more than 4 cells) was counted and normalized to solvent-treated SW620 cells. Differences in solvent vs. niclosamide-treated cells were analyzed by Student's t test. Data represent mean mean±SE of at least two independent experiments each performed in duplicates.

LS174T cells = experiment: Boyden chamber transwell migration assay; settings: 1 μM, 24 h
Method: as §1, §2

SW480 cells = experiment: Boyden chamber transwell migration assay; settings: 1 μM, 24 h
Method: as §1, §2

SW620 cells = experiment: Boyden chamber transwell migration assay; settings: 1 μM, 24 h
Method: as §1, §2

[1] = test system: HCT116-vector cells and HCT116-S100A4 cells; experiment: Anchorage-dependent cell proliferation (MTT); settings: 1 μM daily
Method: For cell proliferation determination of HCT116, SW620, LS174T, SW480 and DLD-1 cells 2×10^3 cells were seeded in 96-well-plates (for each day one plate) and were given 24 hours to attach to the bottom of the well. Cells were from then on treated daily with 1 μM niclosamide or the respective amount of DMSO. For determination of viable cells 3-(4,5-dimethyl-2-thiazol)-2,5-diphenyl-2H-tetrazolium bromide (MTT; Sigma) was added to a final concentration of 0.5 mg per mL and incubated for 3 hours at 37° C. and 5% CO2 in a humidified incubator. […] Crystallized MTT was resolved by 10% SDS in 10 mM HCl and the absorption was measured at 560 nm. […] The average MTT metabolisation was determined of two independent experiments each performed in triplicate.
(A) Cell migration of HCT116-vector and HCT116-S100A4 cells exposed to niclosamide treatment. Cells were treated with 1 μM niclosamide for 24 hours and migration rates were measured with Boyden chamber assay. […] Cells were treated with 1 μM niclosamide for 24 hours and cell invasion was determined by Boyden chamber assay. (C) Directed migration of HCT116-vector and HCT116-S100A4 cells exposed to niclosamide treatment analyzed by wound healing assay. […] Cells were treated daily with 1 μM niclosamide and cell viability was determined with MTT assay. […] (F) Quantification of colonies formed. […]

O=C(Nc1ccc([N+](=O)[O-])cc1Cl)c1cc(Cl)ccc1O [niclosamide, 2′,5-dichloro-4′-nitrosalicylanilide]
cell migration rate (DLD-1 cells): not further affected | migration, mean difference control vs niclosamide (LS174T cells): 41.3% | cell migration rate, mean % (normalized to solvent-treated SW620 cells) (LS174T cells; solvent control 68.2%): 26.8% | migration, mean difference control vs niclosamide (SW480 cells): 11.1% | cell migration rate, mean % (normalized to solvent-treated SW620 cells) (SW480 cells; solvent control 21.7%): 10.6% | migration, mean difference control vs niclosamide (SW620 cells): 52.1% | cell migration rate, mean % (normalized to solvent-treated SW620 cells) (SW620 cells; solvent control 100.0%): 47.9% | anchorage-dependent cell proliferation [1]: reduction of cell proliferation in both cell lines
